Common to all, as to format: functional
The test system of assay [1] is Medicago sativa. Nature of the assay: Post-emergence herbicidal activity against Medicago sativa (alfalfa) assessed as growth inhibition at 1500 ai g/ha after 20 days by green house test.
The test system of assay [2] is Amaranthus retroflexus. Nature of the assay: Post-emergence herbicidal activity against Amaranthus retroflexus assessed as growth inhibition at 1500 ai g/ha after 20 days by green house test.
Assay [3] concerns Brassica rapa subsp. oleifera. Nature of the assay: Post-emergence herbicidal activity against Brassica rapa subsp. oleifera Si Yue Man assessed as growth inhibition at 1500 ai g/ha after 20 days by green house test.
Assay [4] concerns Digitaria sanguinalis. As to the kind of experiment: Post-emergence herbicidal activity against Digitaria sanguinalis (hairy crabgrass) assessed as growth inhibition at 1500 ai g/ha after 20 days by green house test.
Assay [5] has as its system Echinochloa crus-galli. Nature of the assay: Post-emergence herbicidal activity against Echinochloa crus-galli (barnyard grass) assessed as growth inhibition at 1500 ai g/ha after 20 days by green house test.
In assay [6] the test system is Medicago sativa. Nature of the assay: Pre-emergence herbicidal activity against Medicago sativa (alfalfa) assessed as growth inhibition at 1500 ai g/ha after 20 days by green house test.
The subject of assay [7] is Amaranthus retroflexus. Nature of the assay: Pre-emergence herbicidal activity against Amaranthus retroflexus assessed as growth inhibition at 1500 ai g/ha after 20 days by green house test.
Assay [8] relates to Brassica rapa subsp. oleifera. Nature of the assay: Pre-emergence herbicidal activity against Brassica rapa subsp. oleifera Si Yue Man assessed as growth inhibition at 1500 ai g/ha after 20 days by green house test.
Assay [9] concerns Digitaria sanguinalis. Nature of the assay: Pre-emergence herbicidal activity against Digitaria sanguinalis (hairy crabgrass) assessed as growth inhibition at 1500 ai g/ha after 20 days by green house test.
Assay [10] has as its system Echinochloa crus-galli. As to the kind of experiment: Pre-emergence herbicidal activity against Echinochloa crus-galli (barnyard grass) assessed as growth inhibition at 1500 ai g/ha after 20 days by green house test.

Molecules are shown by their SMILES.

Regarding `COP(=O)(OC)C(OC(=O)COc1cccc(Cl)c1Cl)c1cccc([N+](=O)[O-])c1` (stereo not given), the “growth inhibition (GI)” value (with Medicago sativa [1]; with Amaranthus retroflexus [2]; in [3]; in the assay on Digitaria sanguinalis [4]; in the assay with Echinochloa crus-galli [5]; in the assay with Medicago sativa [6]) was “<=50%” in each case. Besides, the “growth inhibition (GI)” value (with Amaranthus retroflexus [7]; in assay [8]; in the assay with Digitaria sanguinalis [9]; in the assay on Echinochloa crus-galli [10]) was “<=50%” each time.

Turning to `COP(=O)(OC)C(C)OC(=O)COc1cc(C)ccc1Cl` (stereo not given), the “growth inhibition (GI)” value in the assay on Medicago sativa [1] is “<=50%”; in the assay with Amaranthus retroflexus [2] it was “<=50%”; in [3] it was “<=50%”; in the assay on Digitaria sanguinalis [4], 50%; in the assay on Echinochloa crus-galli [5], “<=50%”; in the assay on Medicago sativa [6], “<=50%”. Also, the “growth inhibition (GI)” value (with Amaranthus retroflexus [7]; in [8]; with Digitaria sanguinalis [9]; in the assay with Echinochloa crus-galli [10]) was “<=50%” each time.

In the case of `COP(=O)(OC)C(C)OC(=O)COc1cccc(Cl)c1Cl` (stereo not given), the “growth inhibition (GI)” value in the assay on Medicago sativa [1] is listed as “<=50%”; with Amaranthus retroflexus [2] it was 50%; in [3], “<=50%”; in the assay with Digitaria sanguinalis [4] it was “<=50%”; in the assay with Echinochloa crus-galli [5] it was “<=50%”; with Medicago sativa [6], “<=50%”. Also, the “growth inhibition (GI)” value (with Amaranthus retroflexus [7]; in assay [8]; with Digitaria sanguinalis [9]; in the assay with Echinochloa crus-galli [10]) was “<=50%” each time.

Take `COP(=O)(OC)C(OC(=O)COc1ccc(F)cc1Cl)c1ccccc1O` (stereo not given): the “growth inhibition (GI)” value is recorded as 90% with Medicago sativa [1]; 90% with Amaranthus retroflexus [2]; 90% in assay [3]; “<=50%” in the assay with Digitaria sanguinalis [4]; 50% in the assay with Echinochloa crus-galli [5]; 90% with Medicago sativa [6]. The “growth inhibition (GI)” value in the assay with Amaranthus retroflexus [7] turned out to be 90%; in assay [8] it was 90%; in the assay on Digitaria sanguinalis [9] it was 90%; in the assay with Echinochloa crus-galli [10], 50%.

Regarding `COP(=O)(OC)C(OC(=O)COc1ccc(F)cc1F)c1ccccc1` (stereo not given), the “growth inhibition (GI)” value in the assay with Medicago sativa [1] was “<=50%”; in the assay on Amaranthus retroflexus [2] it was 90%; in assay [3], “<=50%”; with Digitaria sanguinalis [4] it was “<=50%”; with Echinochloa crus-galli [5], “<=50%”; in the assay on Medicago sativa [6], 50%. Moreover, the “growth inhibition (GI)” value in the assay on Amaranthus retroflexus [7] was 50%; in [8] it was “<=50%”; in the assay with Digitaria sanguinalis [9] it was “<=50%”; with Echinochloa crus-galli [10], 75%.

Take `COP(=O)(OC)C(OC(=O)COc1ccc(F)c(Cl)c1)c1cccc([N+](=O)[O-])c1` (stereo not given): the “growth inhibition (GI)” value in the assay on Medicago sativa [1] came to 50%; with Amaranthus retroflexus [2], 75%; in assay [3], 50%; with Digitaria sanguinalis [4] it was 75%; in the assay with Echinochloa crus-galli [5] it was 50%; in the assay on Medicago sativa [6], 50%. Moreover, the “growth inhibition (GI)” value is recorded as 50% with Amaranthus retroflexus [7], “<=50%” in assay [8], “<=50%” with Digitaria sanguinalis [9] and 50% with Echinochloa crus-galli [10].

With `COP(=O)(OC)C(C)OC(=O)COc1ccc(F)cc1Cl` (stereo not given), the “growth inhibition (GI)” value in the assay on Medicago sativa [1] is listed as 90%; with Amaranthus retroflexus [2], 90%; in assay [3] it was 90%; with Digitaria sanguinalis [4], 75%; with Echinochloa crus-galli [5], 75%; in the assay with Medicago sativa [6], 90%. Besides, the “growth inhibition (GI)” value (in the assay on Amaranthus retroflexus [7]; in [8]; in the assay on Digitaria sanguinalis [9]; in the assay on Echinochloa crus-galli [10]) was 90% throughout.

For `COP(=O)(OC)C(OC(=O)COc1ccc(Cl)cc1)c1cccc([N+](=O)[O-])c1` (stereo not given), the “growth inhibition (GI)” value amounted to 75% with Medicago sativa [1]; 75% in the assay with Amaranthus retroflexus [2]; 75% in assay [3]; 50% with Digitaria sanguinalis [4]; 75% in the assay with Echinochloa crus-galli [5]; 90% in the assay on Medicago sativa [6]. In addition, the “growth inhibition (GI)” value (in the assay on Amaranthus retroflexus [7]; in assay [8]; in the assay on Digitaria sanguinalis [9]; with Echinochloa crus-galli [10]) was 90% throughout.

With `COP(=O)(OC)C(OC(=O)COc1ccc(Cl)cc1)c1ccccc1O` (stereo not given), the “growth inhibition (GI)” value with Medicago sativa [1] is listed as 75%; in the assay with Amaranthus retroflexus [2], 75%; in assay [3] it was 75%; with Digitaria sanguinalis [4], “<=50%”; in the assay on Echinochloa crus-galli [5], “<=50%”; in the assay with Medicago sativa [6] it was 90%. The “growth inhibition (GI)” value with Amaranthus retroflexus [7] was “<=50%”; in [8], “<=50%”; in the assay with Digitaria sanguinalis [9], 50%; with Echinochloa crus-galli [10], “<=50%”.

With `COP(=O)(OC)C(OC(=O)COc1ccc([N+](=O)[O-])cc1)c1cccc([N+](=O)[O-])c1` (stereo not given), the “growth inhibition (GI)” value (in the assay with Medicago sativa [1]; with Amaranthus retroflexus [2]; in assay [3]; with Digitaria sanguinalis [4]; with Echinochloa crus-galli [5]; with Medicago sativa [6]) was “<=50%” each time. Also, the “growth inhibition (GI)” value (in the assay on Amaranthus retroflexus [7]; in assay [8]; in the assay on Digitaria sanguinalis [9]; with Echinochloa crus-galli [10]) was “<=50%” throughout.

Take `COP(=O)(OC)C(OC(=O)COc1ccc(C)cc1)c1ccccc1` (stereo not given): the “growth inhibition (GI)” value in the assay with Medicago sativa [1] is 50%; in the assay on Amaranthus retroflexus [2], 50%; in assay [3], 50%; with Digitaria sanguinalis [4], “<=50%”; with Echinochloa crus-galli [5], “<=50%”; with Medicago sativa [6], 75%. Also, the “growth inhibition (GI)” value with Amaranthus retroflexus [7] is on record as 75%; in [8] it was 75%; in the assay on Digitaria sanguinalis [9], “<=50%”; in the assay on Echinochloa crus-galli [10], “<=50%”.

For the molecule `COP(=O)(OC)C(C)OC(=O)COc1ccc(F)cc1` (stereo not given), the “growth inhibition (GI)” value is reported as 50% in the assay with Medicago sativa [1]; 75% in the assay on Amaranthus retroflexus [2]; 50% in assay [3]; “<=50%” with Digitaria sanguinalis [4]; “<=50%” in the assay on Echinochloa crus-galli [5]; 75% with Medicago sativa [6]. Further, the “growth inhibition (GI)” value was 50% in the assay on Amaranthus retroflexus [7], 75% in assay [8], 90% in the assay with Digitaria sanguinalis [9] and “<=50%” in the assay on Echinochloa crus-galli [10].

As for `COP(=O)(OC)C(OC(=O)COc1ccc(Cl)cc1Cl)c1cccc(Br)c1` (stereo not given), the “growth inhibition (GI)” value in the assay on Medicago sativa [1] is reported as 90%; in the assay with Amaranthus retroflexus [2] it was 90%; in [3], 90%; in the assay with Digitaria sanguinalis [4], “<=50%”; in the assay on Echinochloa crus-galli [5] it was 50%; in the assay with Medicago sativa [6] it was 90%. The “growth inhibition (GI)” value came to 90% with Amaranthus retroflexus [7], 90% in [8], 90% with Digitaria sanguinalis [9] and 50% with Echinochloa crus-galli [10].

Take `COP(=O)(OC)C(OC(=O)COc1ccccc1)c1ccccc1` (stereo not given): the “growth inhibition (GI)” value (with Medicago sativa [1]; in the assay with Amaranthus retroflexus [2]; in assay [3]; in the assay on Digitaria sanguinalis [4]; in the assay with Echinochloa crus-galli [5]; with Medicago sativa [6]) was “<=50%” each time. In addition, the “growth inhibition (GI)” value (in the assay with Amaranthus retroflexus [7]; in [8]; with Digitaria sanguinalis [9]; with Echinochloa crus-galli [10]) was “<=50%” in each case.

As for `COP(=O)(OC)C(C)OC(=O)COc1ccc(Cl)cc1[N+](=O)[O-]` (stereo not given), the “growth inhibition (GI)” value (with Medicago sativa [1]; in the assay on Amaranthus retroflexus [2]; in [3]; in the assay with Digitaria sanguinalis [4]; with Echinochloa crus-galli [5]; in the assay with Medicago sativa [6]) was “<=50%” throughout. For the same molecule, the “growth inhibition (GI)” value (in the assay on Amaranthus retroflexus [7]; in [8]; in the assay on Digitaria sanguinalis [9]; in the assay on Echinochloa crus-galli [10]) was “<=50%” in each case.

As to `COP(=O)(OC)C(OC(=O)COc1ccccc1F)c1cccc([N+](=O)[O-])c1` (stereo not given), the “growth inhibition (GI)” value with Medicago sativa [1] is listed as “<=50%”; in the assay with Amaranthus retroflexus [2], “<=50%”; in assay [3], “<=50%”; with Digitaria sanguinalis [4], “<=50%”; with Echinochloa crus-galli [5] it was 90%; in the assay with Medicago sativa [6], “<=50%”. Further, the “growth inhibition (GI)” value (in the assay on Amaranthus retroflexus [7]; in assay [8]; with Digitaria sanguinalis [9]; in the assay on Echinochloa crus-galli [10]) was “<=50%” in each case.

Values taken from ChEMBL document CHEMBL3045592, “Studies of O,O-dimethyl α-(2,4-dichlorophenoxyacetoxy)ethylphosphonate (HW02) as a new herbicide. 1. Synthesis and herbicidal activity of HW02 and analogues as novel inhibitors of pyruvate dehydrogenase complex” (J Agric Food Chem, 2011).
